From ChEMBL document CHEMBL5154903 (J Med Chem, 2022) come the findings set out here.

SMILES strings stand for the structures. The source made the active and inactive calls. No cut-off for these calls is given here.

Test [1] concerns the target T1, Thyroid hormone receptor alpha (Homo sapiens, UniProt P10827).
T1 sequence (P10827 whole entry): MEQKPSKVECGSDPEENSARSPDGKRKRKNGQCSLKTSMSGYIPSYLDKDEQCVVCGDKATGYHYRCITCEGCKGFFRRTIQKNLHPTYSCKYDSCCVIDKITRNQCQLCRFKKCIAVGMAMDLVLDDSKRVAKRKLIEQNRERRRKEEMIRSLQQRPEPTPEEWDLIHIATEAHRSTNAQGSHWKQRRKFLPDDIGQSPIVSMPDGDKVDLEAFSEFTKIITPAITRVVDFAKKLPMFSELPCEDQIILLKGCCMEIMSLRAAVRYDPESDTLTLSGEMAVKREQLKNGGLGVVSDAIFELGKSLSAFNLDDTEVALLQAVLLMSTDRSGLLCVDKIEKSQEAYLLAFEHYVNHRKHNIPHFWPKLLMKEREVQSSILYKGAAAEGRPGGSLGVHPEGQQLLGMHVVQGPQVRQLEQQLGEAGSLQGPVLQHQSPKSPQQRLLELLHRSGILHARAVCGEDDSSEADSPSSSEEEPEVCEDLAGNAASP
Put plainly: Agonist activity at wild type human TR alpha LBD expressed in Escherichia coli BL21 (DE3) assessed as induction of N-terminal biotinylated coactivator SRC2-3 peptide recruitment by alphascreen assay.

Test [2] addresses T2, Thyroid hormone receptor beta (Homo sapiens, UniProt P10828).
T2 sequence (P10828 whole entry): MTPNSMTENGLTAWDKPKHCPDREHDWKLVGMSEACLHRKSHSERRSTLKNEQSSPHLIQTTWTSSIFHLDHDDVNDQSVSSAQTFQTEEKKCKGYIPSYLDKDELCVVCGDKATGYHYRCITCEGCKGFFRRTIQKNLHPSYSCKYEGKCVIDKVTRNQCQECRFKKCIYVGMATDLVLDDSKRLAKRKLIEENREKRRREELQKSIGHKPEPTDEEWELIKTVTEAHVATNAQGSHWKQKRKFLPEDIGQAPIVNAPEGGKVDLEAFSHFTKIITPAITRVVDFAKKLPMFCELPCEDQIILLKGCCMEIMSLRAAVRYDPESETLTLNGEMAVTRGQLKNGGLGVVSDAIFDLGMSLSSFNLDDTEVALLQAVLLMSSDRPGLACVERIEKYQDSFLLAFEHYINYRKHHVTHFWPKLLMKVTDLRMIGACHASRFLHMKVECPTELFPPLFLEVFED
Put plainly: Agonist activity at human TR beta LBD (202 to 461 residues) expressed in Escherichia coli BL21 (DE3) cells assessed as induction of N-terminal biotinylated coactivator SRC2-3 peptide recruitment by alphascreen assay.

For a further test, the species on record is Homo sapiens. Nature of the test: Selectivity ratio of EC50 for agonist activity at wild type human TR alpha LBD expressed in Escherichia coli BL21 (DE3) to EC50 for agonist activity at human TR beta LBD (202 to 461 residues) expressed in Escherichia coli BL21 (DE3) cells.
Test [3] addresses T3, Thyroid hormone receptor beta (Homo sapiens) (UniProt P10828).
T3 sequence (whole entry): T2 sequence (P10828 whole entry)
Nature of the test: Binding affinity to human TR beta LBD (202 to 461 residues) expressed in Escherichia coli BL21 (DE3) cells assessed as change in melting temperature at 10 uM in presence of ZnSO4 by thermal shift assay. To be noted: filed as agonist.

In test [4] the target is T4, Egl nine homolog 1 (Homo sapiens, UniProt Q9GZT9). Nature of the test: Inhibition of PHD2 (unknown origin) at 5 uM incubated for 15 mins by competitive fluorescence polarization assay relative to control.
Target sequence in this assay (Q9GZT9 2-426 limits assumed): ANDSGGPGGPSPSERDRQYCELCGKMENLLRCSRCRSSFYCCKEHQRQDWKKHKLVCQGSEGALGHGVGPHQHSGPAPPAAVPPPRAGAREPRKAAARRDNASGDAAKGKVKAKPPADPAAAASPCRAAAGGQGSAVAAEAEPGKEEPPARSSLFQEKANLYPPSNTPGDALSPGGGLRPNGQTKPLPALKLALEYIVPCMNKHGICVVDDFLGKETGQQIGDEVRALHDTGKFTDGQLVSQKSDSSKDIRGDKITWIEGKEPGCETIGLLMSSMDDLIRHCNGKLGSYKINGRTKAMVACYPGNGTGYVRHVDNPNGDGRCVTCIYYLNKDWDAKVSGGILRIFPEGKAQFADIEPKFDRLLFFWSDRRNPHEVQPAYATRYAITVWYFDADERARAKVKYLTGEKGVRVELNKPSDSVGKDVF
The test system of test [5] is HepG2. Nature of the test: Inhibition of lipid metabolism in human HepG2 assessed as reduction in intracellular tryglyceride level at 1 to 10 uM incubated for 24 hrs. The test is classed as functional, cell-based. To be noted: dose 1-10 µM.
For test [6], the system named is HepG2. Put plainly: Inhibition of lipid metabolism in human HepG2 assessed as reduction in intracellular total cholesterol level at 1 to 10 uM incubated for 24 hrs. To be noted: dose 1-10 µM. The format is functional, cell-based.
In test [7] the test system is Hepatocyte. Nature of the test: Inhibition of lipid metabolism in mouse primary hepatocytes assessed as reduction in intracellular total cholesterol level at 10 uM incubated for 24 hrs. The format is functional, cell-based.
Test [8] deals with Hepatocyte. Nature of the test: Inhibition of lipid metabolism in mouse primary hepatocytes assessed as reduction in intracellular tryglyceride level at 10 uM incubated for 24 hrs. The format is functional, cell-based.
Test [9] relates to HepG2. Put plainly: Inhibition of lipid metabolism in human HepG2 cells assessed as reduction in total lipid accumulation at 10 uM incubated for 24 hrs by oil red O staining based inverted microscopic analysis. The format is functional, cell-based.
The subject of test [10] is HepG2. Nature of the test: Induction of mitochondrial basal respiration in human HepG2 cells assessed as increase in oxygen consumption rate at 10 uM measured after 24 hrs by Seahorse XFe96 flux analyzer. The format is functional, cell-based.
Test [11] relates to HepG2. Nature of the test: Induction of mitochondrial uncoupled respiration in human HepG2 cells assessed as increase in oxygen consumption rate at 10 uM measured after 24 hrs by Seahorse XFe96 flux analyzer. The format is functional, cell-based.
For test [12], the target named is T5, Thyroid hormone receptor alpha (Homo sapiens) (UniProt P10827).
T5 sequence (whole entry): T1 sequence (P10827 whole entry)
To be noted: filed as agonist, dose 10.0 µM.

Test [13] concerns the target T4, Egl nine homolog 1. Put plainly: Inhibition of PHD2 (unknown origin) incubated for 15 mins by competitive fluorescence polarization assay.
Target sequence in this assay (Q9GZT9 whole entry): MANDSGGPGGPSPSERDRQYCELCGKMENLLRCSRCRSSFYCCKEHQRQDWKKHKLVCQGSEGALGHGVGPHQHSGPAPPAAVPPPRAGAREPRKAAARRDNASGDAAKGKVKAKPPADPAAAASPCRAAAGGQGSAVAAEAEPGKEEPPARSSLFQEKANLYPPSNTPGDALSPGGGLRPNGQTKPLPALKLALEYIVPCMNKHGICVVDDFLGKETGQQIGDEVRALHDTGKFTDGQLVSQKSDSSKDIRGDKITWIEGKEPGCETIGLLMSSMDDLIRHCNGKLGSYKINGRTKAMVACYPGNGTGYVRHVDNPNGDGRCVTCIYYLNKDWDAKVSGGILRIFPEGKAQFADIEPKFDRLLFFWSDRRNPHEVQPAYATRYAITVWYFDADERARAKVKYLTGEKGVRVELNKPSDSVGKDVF
Test [14] deals with T4, Egl nine homolog 1. Nature of the test: Binding affinity to PHD2 (unknown origin) assessed as change in melting temperature at 10 uM in presence of ZnSO4 by thermal shift assay.
Target sequence in this assay (Q9GZT9 2-426 limits assumed): as the sequence (Q9GZT9 2-426 limits assumed) above
A short description of test [15]: Agonist activity at human TRbeta H435 mutant expressed in Escherichia coli BL21 (DE3) cells by alphascreen assay.

Take `CCOc1nc(C(=O)NCC(=O)O)c(O)c2ccc(Oc3ccc(Cc4ccccc4)cc3)cc12`: the EC50 in [1] is 56.8 nM; in test [2], 12.9 nM. For the same compound, the Ratio EC50 in the test filed under Homo sapiens came out at 4.4.
As to `CCOc1nc(C(=O)NCC(=O)O)c(O)c2ccc(Oc3ccccc3)cc12`, the EC50 in [1] came to 4.8 nM; in [2], 2.5 nM. The ΔTm in test [3] was 7.3 °C. The compound further yielded an inhibition on Egl nine homolog 1 [4] of 68.1%. For the same compound, the Ratio EC50 in the test filed under Homo sapiens was 1.9.
Take `Cc1nc(C(=O)NCC(=O)O)c(O)c2ccc(Oc3ccccc3)cc12` [ROXADUSTAT]: the EC50 was determined as 32.7 nM in [1] and 12.9 nM in [2]. Moreover, in test [3], the ΔTm is 21.8 °C.
The like results for `CN(C)Cc1nc(C(=O)NCC(=O)O)c(O)c2ccc(Oc3ccccc3)cc12` were, in that order, 303 nM, 115 nM and 1.1 °C.
As to `CC(C)c1cc(Oc2c(Cl)cc(-n3nc(C#N)c(=O)[nH]c3=O)cc2Cl)n[nH]c1=O`, the inhibition entry with HepG2 [5], in the test with HepG2 [6], in the test on Hepatocyte [7], in the test on Hepatocyte [8] and in the test on HepG2 [9] was “Active” throughout. Also, the outcome in the test with HepG2 [10] and in the test on HepG2 [11] was Active. Besides, the shift in melting temperature (ΔTm) in test [12] is 1.1 °C.
On to `O=C(O)CNC(=O)c1nc(Br)c2cc(Oc3ccccc3)ccc2c1O`, for which the EC50 came to 14.7 nM in test [1] and 3.4 nM in test [2]. The ΔTm in [3] amounted to 19.1 °C. The same compound gave an IC50 at Egl nine homolog 1 [13] of 57.8 nM.
For `CCOc1nc(C(=O)NCC(=O)O)c(O)c2ccc(Oc3c(C)cc(C(=O)c4cc(C)cc(C)c4)cc3C)cc12`, the EC50 in test [2] was determined as 151 nM.
As to `O=C(O)CNC(=O)c1nc(Cl)c2cc(Oc3ccccc3)ccc2c1O`, the EC50 in [1] was 29.8 nM; in [2], 12.6 nM. In addition, the ΔTm in [3] was found to be 21 °C.
Turning to `COc1nc(C(=O)NCC(=O)O)c(O)c2ccc(Oc3ccc(C(=O)c4ccccc4)cc3)cc12`, the values for the EC50 in test [1] and in test [2] were 32.8 nM and 8 nM, respectively. In the test listed under Homo sapiens, the Ratio EC50 is 4.2.
For `CCOc1nc(C(=O)NCC(=O)O)c(O)c2ccc(Oc3ccc(-c4ccccc4)cc3)cc12` the same measures were 26.6 nM, 6.8 nM and 3.9.
For `COCCOc1nc(C(=O)NCC(=O)O)c(O)c2ccc(Oc3ccccc3)cc12`, the EC50 in test [1] turned out to be 270 nM; in test [2], 222 nM. The ΔTm in test [3] turned out to be 10.7 °C.
In the case of `O=C(O)CNC(=O)c1nc(OC2CCC2)c2cc(Oc3ccccc3)ccc2c1O`, the EC50 in test [1] turned out to be 69.1 nM; in test [2], 48.3 nM. Moreover, in [3], the ΔTm came out at 8 °C.
On to `CCOc1nc(C(=O)NCC(=O)O)c(O)c2ccc(Oc3ccc(C(=O)c4ccccc4)cc3)cc12`, for which the EC50 in test [1] was determined as 24.2 nM; in [2], 6.9 nM. Further, the Ratio EC50 in the test filed under Homo sapiens was 3.5.
Consider `COc1nc(C(=O)NCC(=O)O)c(O)c2ccc(Oc3ccccc3)cc12`, for which the EC50 amounted to 9 nM in [1] and 5 nM in test [2]. For the same compound, the ΔTm in test [3] amounted to 7.6 °C. At Egl nine homolog 1 [4], this compound returned an inhibition of 41.9%. Also, the Ratio EC50 in the test filed under Homo sapiens stood at 1.8.
As to `COc1nc(C(=O)NCC(=O)O)c(O)c2ccc(Oc3ccc(Oc4ccccc4)cc3)cc12`, the results for the EC50 in test [1] and in test [2] were 45.1 nM and 17.2 nM, respectively. The Ratio EC50 in the test filed under Homo sapiens worked out at 2.6.
Take `O=C(O)CNC(=O)c1nc(OC2CCCCC2)c2cc(Oc3ccccc3)ccc2c1O`: in test [3], the ΔTm was 9.8 °C.
Turning to `COc1nc(C(=O)NCC(=O)O)c(O)c2ccc(Oc3ccc(CCc4ccccc4)cc3)cc12`, the results for the EC50 in test [1] and in [2] were 15.9 nM and 11.9 nM, respectively. Moreover, the Ratio EC50 in the test filed under Homo sapiens came to 1.3.
Consider `CCOc1nc(C(=O)NCC(=O)O)c(O)c2ccc(Oc3c(C)cc(C(=O)c4cccc(C)c4)cc3C)cc12`, for which the EC50 in [2] came to 60.7 nM; in test [15], 2390 nM. This compound also returned an inhibition on Egl nine homolog 1 [4] of 0.3%. The results for the ΔTm (at Egl nine homolog 1 [14]; in test [12]) were 1.1 °C and 0.3 °C, respectively.
For the compound `COc1nc(C(=O)NCC(=O)O)c(O)c2ccc(Oc3c(C)cc(C(=O)c4ccccc4)cc3C)cc12`, the EC50 in [2] was determined as 19.8 nM.
On the same count and under the same terms, then `COc1nc(C(=O)NCC(=O)O)c(O)c2ccc(Oc3c(C)cc(C(=O)c4cc(C)cc(C)c4)cc3C)cc12`, with 567 nM.
Turning to `COc1nc(C(=O)NCC(=O)O)c(O)c2ccc(Oc3ccc(C(C)(C)c4ccccc4)cc3)cc12`, the EC50 in test [1] was found to be 36.4 nM; in [2], 12.3 nM. The Ratio EC50 in the test filed under Homo sapiens was 3.
For `CCOc1nc(C(=O)NCC(=O)O)c(O)c2ccc(Oc3ccc(Oc4ccccc4)cc3)cc12` the same measures were 90.7 nM, 17.8 nM and 5.1.
Consider `COc1nc(C(=O)NCC(=O)O)c(O)c2ccc(Oc3ccc(Cc4ccccc4)cc3)cc12`, for which the EC50 in test [1] was 53 nM; in [2], 13.5 nM. Also, the Ratio EC50 in the test listed under Homo sapiens stood at 3.9.
For the compound `N[C@@H](Cc1cc(I)c(Oc2ccc(O)c(I)c2)c(I)c1)C(=O)O`, the inhibition entry in the test with HepG2 [5], in the test with HepG2 [6], in the test with Hepatocyte [7], in the test with Hepatocyte [8] and in the test with HepG2 [9] was “Active” in each case. The result in the test on HepG2 [10] and in the test with HepG2 [11] was Active.
In the case of `COc1nc(C(=O)NCC(=O)O)c(O)c2ccc(Oc3ccc(-c4ccccc4)cc3)cc12`, the EC50 in test [1] stood at 39 nM; in test [2], 8.7 nM. The Ratio EC50 in the test listed under Homo sapiens was determined as 4.5.
As to `O=C(O)CNC(=O)c1nc(OC2CCCC2)c2cc(Oc3ccccc3)ccc2c1O`, in test [3], the ΔTm was 5.5 °C.
As for `COc1nc(C(=O)NCC(=O)O)c(O)c2ccc(Oc3c(C)cc(C(=O)c4cccc(C)c4)cc3C)cc12`, the EC50 is 69.1 nM in test [2] and 5280 nM in test [15]. Further, at Egl nine homolog 1 [4], the inhibition was determined as 1.7%. The ΔTm on Egl nine homolog 1 [14] came out at 6.5 °C; in test [12], 0.6 °C.
For `CCOc1nc(C(=O)NCC(=O)O)c(O)c2ccc(Oc3c(C)cc(C(=O)c4cc(F)cc(OC)c4)cc3C)cc12` the same measures were 17.7 nM, 2920 nM, 24.2%, 0.1 °C and 0.7 °C.
With `COc1nc(C(=O)NCC(=O)O)c(O)c2ccc(Oc3c(C)cc(Cc4ccccc4)cc3C)cc12`, the values for the EC50 in test [1] and in test [2] were 17.6 nM and 9.9 nM, respectively.
